From the NIST ThermoML archive (doi:10.1021/acs.jced.5b00658)

What was measured:
[1] = for viscosity / mass density: 101.33 kPa; for mass density: Vibrating tube method; for Normal melting temperature: Crystal, DTA; for Glass transition temperature: DSC
[2] = Molar enthalpy of transition or fusion; conditions: Crystal; DSC

CC(C)Cn1cc[n+](C)c1.O=S(=O)([N-]S(=O)(=O)C(F)(F)F)C(F)(F)F
[1], Liquid
Conditions	mass density [kg/m3]	viscosity [mPa·s]
278.15 K	–	244
283.15 K	1450.3	–
288.15 K	1445.6	132
293.15 K	1441.1	103
298.15 K	1436.3	79
303.15 K	1431.6	61
308.15 K	1426.6	–
313.15 K	1421.9	40
323.15 K	–	28
333.15 K	–	20

Conditions	Glass transition temperature [°C]	Molar enthalpy of transition or fusion [kcal/mol]	Normal melting temperature [°C]
[1]	-81.2	–	-16.2
[2]	–	1.63	–

CC(C)CCCCn1cc[n+](C)c1.O=S(=O)([N-]S(=O)(=O)C(F)(F)F)C(F)(F)F
viscosity [mPa·s], [1]
Conditions	278.15 K	288.15 K	293.15 K	298.15 K	303.15 K	313.15 K	323.15 K	333.15 K
Concentric cylinders viscometry, Liquid	–	164	124	96	76	50	35	25
Metastable liquid, Concentric cylinders viscometry	306	–	–	–	–	–	–	–

[1], Liquid
Conditions	mass density [kg/m3]
283.15 K	1357.5
288.15 K	1353
293.15 K	1348.7
298.15 K	1344.2
303.15 K	1339.8
308.15 K	1335.2
313.15 K	1330.6

Conditions	Glass transition temperature [°C]	Molar enthalpy of transition or fusion [kcal/mol]	Normal melting temperature [°C]
[1]	-81.3	–	11.2
[2]	–	0.12	–

CCCCCn1cc[n+](C)c1.O=S(=O)([N-]S(=O)(=O)C(F)(F)F)C(F)(F)F
[1], Liquid
Conditions	mass density [kg/m3]
283.15 K	1417.5
288.15 K	1412.9
293.15 K	1408.4
298.15 K	1403.6
303.15 K	1399
308.15 K	1393.9
313.15 K	1389.3

CC(C)CCCn1cc[n+](C)c1.O=S(=O)([N-]S(=O)(=O)C(F)(F)F)C(F)(F)F
[1], Liquid, Concentric cylinders viscometry
Conditions	viscosity [mPa·s]
278.15 K	237
288.15 K	137
293.15 K	107
298.15 K	85
303.15 K	69
313.15 K	45
323.15 K	32
333.15 K	23

[1], Liquid
Conditions	mass density [kg/m3]
283.15 K	1385.9
288.15 K	1381.3
293.15 K	1377
298.15 K	1372.4
303.15 K	1367.9
308.15 K	1363.3
313.15 K	1358.5

Conditions	Glass transition temperature [°C]	Molar enthalpy of transition or fusion [kcal/mol]	Normal melting temperature [°C]
[1]	-81	–	3.2
[2]	–	0.0239	–

CC(C)CCn1cc[n+](C)c1.O=S(=O)([N-]S(=O)(=O)C(F)(F)F)C(F)(F)F
[1], Liquid, Concentric cylinders viscometry
Conditions	viscosity [mPa·s]
278.15 K	195
288.15 K	112
293.15 K	86
298.15 K	69
303.15 K	56
313.15 K	38
323.15 K	27
333.15 K	20

[1], Liquid
Conditions	mass density [kg/m3]
283.15 K	1417.5
288.15 K	1412.7
293.15 K	1408.1
298.15 K	1403.3
303.15 K	1398.5
308.15 K	1393.7
313.15 K	1388.7

Conditions	Glass transition temperature [°C]	Molar enthalpy of transition or fusion [kcal/mol]	Normal melting temperature [°C]
[1]	-83.7	–	-0.0
[2]	–	0.0239	–

CCCn1cc[n+](C)c1.O=S(=O)([N-]S(=O)(=O)C(F)(F)F)C(F)(F)F
[1], Liquid, Concentric cylinders viscometry
Conditions	viscosity [mPa·s]
278.2 K	103
288.15 K	64
298.15 K	43
308.15 K	30
318.15 K	22
328.15 K	17
338.15 K	13

[1], Liquid
Conditions	mass density [kg/m3]
283.15 K	1490.2
288.15 K	1485.2
293.15 K	1480.6
298.15 K	1475.6
303.15 K	1470.8
308.15 K	1465.8
313.15 K	1460.6

CC(C)[n+]1ccn(C)c1.O=S(=O)([N-]S(=O)(=O)C(F)(F)F)C(F)(F)F
[1], Liquid, Concentric cylinders viscometry
Conditions	viscosity [mPa·s]
278.15 K	122
288.15 K	75
293.15 K	59
298.15 K	48
303.15 K	39
313.15 K	28
323.15 K	21
333.15 K	16

[1], Liquid
Conditions	mass density [kg/m3]
283.15 K	1492.2
288.15 K	1487.2
293.15 K	1482.5
298.15 K	1477.6
303.15 K	1472.8
308.15 K	1467.8
313.15 K	1462.6

Conditions	Glass transition temperature [°C]	Molar enthalpy of transition or fusion [kcal/mol]	Normal melting temperature [°C]
[1]	-83	–	9.0
[2]	–	5.71	–

CCCCCC[n+]1ccn(C)c1.O=S(=O)([N-]S(=O)(=O)C(F)(F)F)C(F)(F)F
[1], Liquid
Conditions	mass density [kg/m3]
283.15 K	1386.1
288.15 K	1381.5
293.15 K	1377.2
298.15 K	1372.7
303.15 K	1368.3
308.15 K	1363.6
313.15 K	1358.8

Conditions	Glass transition temperature [°C]	Molar enthalpy of transition or fusion [kcal/mol]	Normal melting temperature [°C]
[1]	-85.7	–	-11.2
[2]	–	1.65	–

CCCC[n+]1ccn(C)c1.O=S(=O)([N-]S(=O)(=O)C(F)(F)F)C(F)(F)F
[1], Liquid
Conditions	mass density [kg/m3]
283.15 K	1451.2
288.15 K	1446.5
293.15 K	1441.9
298.15 K	1436.9
303.15 K	1432.1
308.15 K	1427.1
313.15 K	1422.6

Conditions	Glass transition temperature [°C]	Molar enthalpy of transition or fusion [kcal/mol]	Normal melting temperature [°C]
[1]	-88.9	–	-4.6
[2]	–	5.76	–

CCCCCCCn1cc[n+](C)c1.O=S(=O)([N-]S(=O)(=O)C(F)(F)F)C(F)(F)F
[1], Liquid, Concentric cylinders viscometry
Conditions	viscosity [mPa·s]
278.2 K	234
288.15 K	132
298.15 K	82
308.15 K	54
318.15 K	37
328.15 K	27
338.15 K	20

[1], Liquid
Conditions	mass density [kg/m3]
283.15 K	1358.4
288.15 K	1354.1
293.15 K	1349.8
298.15 K	1345.4
303.15 K	1341
308.15 K	1336.4
313.15 K	1331.6

Conditions	Glass transition temperature [°C]	Molar enthalpy of transition or fusion [kcal/mol]	Normal melting temperature [°C]
[1]	-85.4	–	-0.9
[2]	–	0.0956	–
